# Reference: patent US10881642B2, “Autophagy enhancer and use thereof” (Industry-Academic Cooperation Foundation, Yonsei University, priority 2016, dated 2021)
# System: mTOR
# Test: Western blot for mTOR inhibition (S6K1 phosphorylation)
# Assay type: cell-based
# Conditions: immunoblot
# Description: Screening of autophagy enhancer. […] Luciferase assay. Firefly and Renilla luciferase assays were conducted using the Dual-Luciferase Reporter Assay System (Promega) according to the manufacturer's recommendation. In brief, cells were lysed in 1× lysis buffer and subjected to a single round of freezing/thawing. Firefly luciferase was determined after mixing 5 μl of lysate with 25 μl of Luciferase Assay Reagent II. Renilla luciferase was then determined after further addition of 20 ul of Stop&Glo Reagent. Cell culture and media and drugs treatment. […] Cytotoxicity was determined by the measurement of LDH release in cell culture media using the LDH kit (Roche), according to the protocol from the manufacturer. […] Imaging and image quantification. […] Formation of acidic vesicular organelles was quantitated by staining the cells with acridine orange (Invitrogen, 5 ug/ml, 10 min). […] Cells or tissues were solubilized in lysis buffer supplemented with protease and phosphatase inhibitors and protein concentration was measured by the Bradford method. Ten to 30 micrograms were loaded on 4-12% Bis-Tris gel (NUPAGE, Invitrogen) or 8-15% SDS-PAGE, transferred to PVDF membranes and analyzed by western blot using the ECL method (Pierce). […] Protein levels were quantified by using ImageJ software analysis. […]
row,Compound,mTOR inhibition
1,"COc1oc(-c2ccccc2Cl)nc1S(=O)(=O)c1ccccc1 [MSL-7, 2-(2-chlorophenyl)-5-methoxy-4-(phenylsulfonyl) oxazole]",without cellular toxicity or mTOR inhibition
2,CSc1oc(-c2ccccc2)nc1S(=O)(=O)c1ccc(F)cc1 [MSL],does not involve mTOR inhibition
